Values after ≈ are worked out from the molar mass of the structure shown. “Also recorded” adds a separate entry of the source. Read-outs that look alike come from different tables or passages of the source.
Assays:
[1] = system: Trichophyton mentagrophytes; experiment: In vitro activity against Trichophyton mentagrophytes, MIC by twofold macro-broth dilution (Test Example 1); type: cell-based; settings: for MIC: Trichophyton mentagrophytes, 7 days at 27° C.
Method: (§1) Minimum inhibitory concentrations (MICs) were determined by the twofold macro-broth dilution method with Sabouraud's glucose broth which constituted with 1% bactopeptone and 4% glucose. To each tube containing 9.8 ml of the broth, 0.1 ml of each testing compound dissolved in DMSO and 0.1 ml of a conidial suspension (1×10^6 conidia/ml) were added. The fungal growth was observed after incubation for 7 days at 27° C. The MIC was determined as the lowest drug concentration which prevented a visible fungal growth.

Trichophyton rubrum = experiment: In vitro activity against Trichophyton rubrum, MIC by twofold macro-broth dilution (Test Example 1); type: cell-based
Method: as §1

[2] = system: trichophyton mentagrophytes TIMM 2789; experiment: Therapeutic efficacy on experimental tinea pedis in guinea pigs (Test Example 2); type: in vivo
Method: Male Hartley guinea pigs (Japan SLC Inc.) weighing 400 to 620 g were used for the infection study. One side of a paper disc (1.5 mm thick×8 mm diameter) was covered with a piece of aluminum foil while the other side was free to carry the inoculum suspension. The disc was immersed with 50 μl of the inoculum suspension (trichophyton mentagrophytes TIMM 2789, 1×10^8 conidia/ml), and was then fixed on the planta pedis of animal feet with an adhesive elastic tape. The disc was removed on the seventh day postinfection. Each agent dissolved in PEG 400 (0.1 ml/locus) was topically applied to the whole soles of guinea pigs once a day for 3 consecutive days, starting on the 10th day postinfection. Five days after the last treatment, the skin tissue from each planta pedis and the corresponding tarsus of all animals was cut into small blocks (about 2×2 mm). Ten skin blocks obtained from each part of the foot were implanted on a Sabouraud's glucose agar plate containing antibiotics, and were cultured at 27° C. for 14 days. The skin blocks yielding fungal growth were regarded as culture-positive, and the foot (planta pedis plus tarsus) with more than one culture-positive skin block was considered fungus-positive. In addition, the intensity of infection was assessed by the scores based on the number of culture-positive skin blocks. Namely, +10, +9, +8, +7, +6, +5, +4, +3, +2, +1 or 0 was given as the score according to the corresponding number of culture-positive skin blocks out of ten skin blocks studied. Statistical analyses for the rate of fungus-positive feet and the average intensity of infection were assessed by Fisher's exact probably test and Mann-Whitney's U-test, respectively.

Candida albicans = experiment: In vitro antifungal activity against Candida albicans, MIC by twofold micro-broth dilution (Test Example 3); type: cell-based; settings: 48 hours at 35° C., pH 7.0, read-out: MIC
Method: MICs were determined by the twofold micro-broth dilution method with RPMI 1640 buffered with morphorino-propanesulfonic acid to a final molarity of 0.165M (pH 7.0). One hundred μl of a yeast cell suspension (1 to 5×10^3 cells/ml) and 100 μl of the compound-containing medium were pipetted into each well flat-bottomed microtiter plates. After incubation for 48 hours at 35° C., the turbidity of each well was measured at 630 nm.

Aspergillus fumigatus = experiment: In vitro antifungal activity against Aspergillus fumigatus, MIC by twofold agar dilution (Test Example 4); type: cell-based; settings: read-out: MIC
Method: MICs were determined by the twofold agar dilution method with casitone agar which constituted with 0.9% bactocasitone, 1% bacto-yeast extract, 2% glucose, 0.1% KH2 PO4, 0.1% Na2 HPO4, 1% Na3 C6 H5 O7 and 1.6% agar. A loopful of each inoculum (1×10^6 conidia/ml) was streaked onto the agar plate containing a compound, and a fungal growth was observed after incubation for 48 hours at 35° C. The MIC was determined as the lowest drug concentration which prevented a visible fungal growth.

dermatophytes = experiment: Antifungal activity against dermatophytes compared with racemic mixtures (general statement); settings: especially highly sensitive strains
[3] = 0.5% in PEG 400, topical once a day for 3 days, p < 0.01 vs untreated and PEG 400 control
[4] = 1% in PEG 400, topical once a day for 3 days, p < 0.01 vs untreated and PEG 400, Compound (A) also p < 0.05 vs 1% Racemic Compound (A)
[5] = 1% in PEG 400, topical once a day for 3 days, p < 0.01 vs untreated and PEG 400 control

MIC ([1]; IFO5466, 168 h, strain IFO 5466): 20 ng/mL (≈ 0.0625 µM)
MIC ([1]; IFO5809, 168 h, strain IFO 5809): 5 ng/mL (≈ 0.0156 µM)
MIC ([1]; IFO5810, 168 h, strain IFO 5810): 5 ng/mL (≈ 0.0156 µM)
MIC ([1]; IFO5811, 168 h, strain IFO 5811): 20 ng/mL (≈ 0.0625 µM)
MIC ([1]; IFO5929, 168 h, strain IFO 5929): 10 ng/mL (≈ 0.0313 µM)
MIC ([1]; TIMM1189, 168 h, strain TIMM 1189): 10 ng/mL (≈ 0.0313 µM)
MIC ([1]; TIMM1814, 168 h, strain TIMM 1814): 20 ng/mL (≈ 0.0625 µM)
MIC ([1]; TIMM1815, 168 h, strain TIMM 1815): 20 ng/mL (≈ 0.0625 µM)
MIC ([1]; TIMM1817, 168 h, strain TIMM 1817): 20 ng/mL (≈ 0.0625 µM)
MIC ([1]; TIMM2789, 168 h, strain TIMM 2789): 5 ng/mL (≈ 0.0156 µM)
MIC (Trichophyton rubrum; IFO5467, 168 h, strain IFO 5467, 7 days at 27° C.): 1.3 ng/mL (≈ 0.00406 µM)
MIC (Trichophyton rubrum; IFO5807, 168 h, strain IFO 5807, 7 days at 27° C.): 2.5 ng/mL (≈ 0.00782 µM)
MIC (Trichophyton rubrum; IFO5808, 168 h, strain IFO 5808, 7 days at 27° C.): 2.5 ng/mL (≈ 0.00782 µM)
MIC (Trichophyton rubrum; IFO6203, 168 h, strain IFO 6203, 7 days at 27° C.): 2.5 ng/mL (≈ 0.00782 µM)
MIC (Trichophyton rubrum; IFO6204, 168 h, strain IFO 6204, 7 days at 27° C.): 2.5 ng/mL (≈ 0.00782 µM)
MIC (Trichophyton rubrum; IFO9185, 168 h, strain IFO 9185, 7 days at 27° C.): 1.3 ng/mL (≈ 0.00406 µM)
MIC (Trichophyton rubrum; TIMM1822, 168 h, strain TIMM 1822, 7 days at 27° C.): 1.3 ng/mL (≈ 0.00406 µM)
MIC (Trichophyton rubrum; TIMM1823, 168 h, strain TIMM 1823, 7 days at 27° C.): 2.5 ng/mL (≈ 0.00782 µM)
MIC (Trichophyton rubrum; TIMM1824, 168 h, strain TIMM 1824, 7 days at 27° C.): 1.3 ng/mL (≈ 0.00406 µM)
MIC (Trichophyton rubrum; TIMM1830, 168 h, strain TIMM 1830, 7 days at 27° C.): 0.63 ng/mL (≈ 0.00197 µM)
MIC (Candida albicans; IFO0197, strain IFO 0197, 80% inhibition): 62.5 ng/mL (≈ 0.195 µM)
MIC (Candida albicans; IFO0579, strain IFO 0579, 80% inhibition): 31.3 ng/mL (≈ 0.0979 µM)
MIC (Candida albicans; IFO1269, strain IFO 1269, 80% inhibition): 62.5 ng/mL (≈ 0.195 µM)
MIC (Candida albicans; IFO1270, strain IFO 1270, 80% inhibition): 250 ng/mL (≈ 0.782 µM)
MIC (Candida albicans; IFO1385, strain IFO 1385, 80% inhibition): 62.5 ng/mL (≈ 0.195 µM)
MIC (Candida albicans; IFO1386, strain IFO 1386, 80% inhibition): 125 ng/mL (≈ 0.391 µM)
MIC (Candida albicans; TIMM3163, strain TIMM 3163, 80% inhibition): 4000 ng/mL (≈ 12.5 µM)
MIC (Candida albicans; TIMM3164, strain TIMM 3164, 80% inhibition): 250 ng/mL (≈ 0.782 µM)
MIC (Candida albicans; TIMM3165, strain TIMM 3165, 80% inhibition): 2000 ng/mL (≈ 6.25 µM)
MIC (Candida albicans; TIMM3166, strain TIMM 3166, 80% inhibition): 1000 ng/mL (≈ 3.13 µM)
MIC (Aspergillus fumigatus; TIMM0063, strain TIMM 0063, 48 hours at 35° C.): 0.63 ng/mL (≈ 0.00197 µM)
MIC (Aspergillus fumigatus; TIMM0078, strain TIMM 0078, 48 hours at 35° C.): 0.63 ng/mL (≈ 0.00197 µM)
MIC (Aspergillus fumigatus; TIMM1728, strain TIMM 1728, 48 hours at 35° C.): 1.3 ng/mL (≈ 0.00406 µM)
MIC (Aspergillus fumigatus; TIMM1767, strain TIMM 1767, 48 hours at 35° C.): 1.3 ng/mL (≈ 0.00406 µM)
Compound: N#C/C(=C1/SC[C@@H](c2ccccc2Cl)S1)n1ccnc1 [Compound (A), R-(+)-(E)-[4-(2-chlorophenyl)-1,3-dithiolan-2-ylidene]-1-imidazolylacetonitrile]
in vitro antifungal activity relative to Racemic Compound (A) ([1]; MIC for T. mentagrophytes TIMM 2789): 4 times
sensitivity (in words) (Trichophyton rubrum): highly sensitive
effect relative to 1% Racemic Compound (A) ([2]; 0.5% Compound (A) vs 1% Racemic Compound (A)): twice; also recorded: more than twice
Average intensity of infection, planta pedis (score 0 to +10) [2, 3]: +0.3
Average intensity of infection, tarsus (score 0 to +10) [2, 3]: 0
Fungus-positive rate (%) [2, 3]: 20%
Fungus-positive rate: The number of positive feet/The total number of feet [2, 3]: 2/10
Fungus-positive rate (%) [2, 4]: 0%
Fungus-positive rate: The number of positive feet/The total number of feet [2, 4]: 0/10
Average intensity of infection, planta pedis (score 0 to +10) [2, 5]: 0
Average intensity of infection, tarsus (score 0 to +10) [2, 5]: 0
curative effect (in words) ([2]; 1% treated group): mycologically complete healing
curative effect compared with Racemic Compound (A) ([2]; at the same concentration): markedly higher
antifungal activity relative to the racemic mixtures (dermatophytes): several times

From patent publication US5900488A, “Method for treating mycosis using imidazolylacetonitrile derivatives” (Nihon Nohyaku Co., Ltd., priority 1995, dated 1999)
